Values belong to the compound of their own block, whether it stands above or below them. The source made the active and inactive calls.
How the values were obtained:
[1] = target: Matrix metalloproteinase-14 (Homo sapiens, UniProt P50281); test: Dose Response confirmation of uHTS hits for a small molecule inhibitors of MT1-MMP activation in a fluorescence assay set 1.; type: functional
Aminopeptidase N = target: T1, Aminopeptidase N (Plasmodium falciparum FcB1/Columbia, UniProt O96935); test: malaria alanyl aminopeptidase activity blockers – biochemical, fluorogenic H-Leu-NHMec substrate, 1536-well (AID 1445); parameters: species or system Plasmodium falciparum 3D7, 3D7
T1 sequence (O96935 whole entry): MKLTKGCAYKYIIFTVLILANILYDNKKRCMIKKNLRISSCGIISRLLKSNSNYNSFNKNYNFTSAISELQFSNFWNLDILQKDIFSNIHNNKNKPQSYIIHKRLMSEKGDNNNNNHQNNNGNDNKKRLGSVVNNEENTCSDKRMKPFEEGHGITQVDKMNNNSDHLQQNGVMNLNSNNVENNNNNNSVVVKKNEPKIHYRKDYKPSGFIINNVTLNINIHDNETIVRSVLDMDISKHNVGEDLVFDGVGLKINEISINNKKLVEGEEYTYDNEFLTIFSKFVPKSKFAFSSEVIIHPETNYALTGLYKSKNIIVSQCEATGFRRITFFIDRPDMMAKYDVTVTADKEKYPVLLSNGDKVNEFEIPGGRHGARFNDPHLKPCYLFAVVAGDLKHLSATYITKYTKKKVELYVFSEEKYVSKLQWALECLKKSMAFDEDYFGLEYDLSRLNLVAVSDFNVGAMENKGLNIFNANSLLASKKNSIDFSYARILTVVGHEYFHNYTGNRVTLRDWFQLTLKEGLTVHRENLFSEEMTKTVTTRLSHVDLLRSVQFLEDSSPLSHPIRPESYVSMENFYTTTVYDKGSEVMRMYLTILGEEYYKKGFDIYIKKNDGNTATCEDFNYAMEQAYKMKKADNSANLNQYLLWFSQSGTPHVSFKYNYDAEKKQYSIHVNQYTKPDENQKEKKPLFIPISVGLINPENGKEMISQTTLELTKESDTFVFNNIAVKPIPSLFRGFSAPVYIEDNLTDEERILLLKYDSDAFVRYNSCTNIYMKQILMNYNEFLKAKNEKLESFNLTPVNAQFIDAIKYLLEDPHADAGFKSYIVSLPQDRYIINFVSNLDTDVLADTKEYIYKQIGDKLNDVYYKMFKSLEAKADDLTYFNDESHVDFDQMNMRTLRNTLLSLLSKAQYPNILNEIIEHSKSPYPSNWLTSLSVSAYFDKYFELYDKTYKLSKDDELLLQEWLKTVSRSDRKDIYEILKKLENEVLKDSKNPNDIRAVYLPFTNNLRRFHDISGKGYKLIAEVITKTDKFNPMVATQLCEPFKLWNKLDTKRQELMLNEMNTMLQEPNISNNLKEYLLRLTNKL

[2] = blockers of CRF-binding protein–CRF-R2 complex – cell-based, uHTS hits, 384-well, dose response (AID 651639); type: functional, Homo sapiens; details: read-out: IC50_Mean
[3] = target: T2, Corticotropin-releasing factor receptor 2/Corticotropin-releasing factor-binding protein (Homo sapiens, UniProt P24387+Q13324); test: Dose Response confirmation of uHTS hits for small molecule antagonists of the CRF-binding protein and CRF-R2 receptor complex.; type: functional; details: read-out: IC50_Mean
T2 sequence (Q13324 whole entry): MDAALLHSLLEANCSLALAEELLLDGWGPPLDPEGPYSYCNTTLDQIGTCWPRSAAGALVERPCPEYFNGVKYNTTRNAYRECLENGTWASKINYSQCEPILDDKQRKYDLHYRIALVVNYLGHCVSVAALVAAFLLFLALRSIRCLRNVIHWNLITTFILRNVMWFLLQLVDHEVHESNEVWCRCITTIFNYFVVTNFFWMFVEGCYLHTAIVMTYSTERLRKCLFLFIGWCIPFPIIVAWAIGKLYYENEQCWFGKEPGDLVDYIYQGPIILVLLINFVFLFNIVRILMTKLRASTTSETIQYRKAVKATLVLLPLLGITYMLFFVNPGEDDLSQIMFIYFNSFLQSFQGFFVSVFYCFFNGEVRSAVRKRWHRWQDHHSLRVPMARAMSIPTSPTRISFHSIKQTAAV
T2 sequence (P24387 whole entry): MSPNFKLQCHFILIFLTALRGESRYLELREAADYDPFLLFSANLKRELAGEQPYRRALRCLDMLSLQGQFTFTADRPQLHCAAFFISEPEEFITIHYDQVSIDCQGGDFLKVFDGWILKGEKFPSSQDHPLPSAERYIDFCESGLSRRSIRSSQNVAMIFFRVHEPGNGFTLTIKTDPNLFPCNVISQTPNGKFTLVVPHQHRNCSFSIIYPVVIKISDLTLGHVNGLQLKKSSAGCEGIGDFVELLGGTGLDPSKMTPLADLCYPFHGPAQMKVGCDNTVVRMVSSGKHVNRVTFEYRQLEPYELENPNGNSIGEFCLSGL

[4] = target: T2, Corticotropin-releasing factor receptor 2/Corticotropin-releasing factor-binding protein; test: activators of CRF receptor 2 with binding protein – uHTS hits, confirmation (AID 602473); type: functional; details: read-out: EC50_Mean
[5] = reduction of Shn3 3'UTR-driven luciferase in osteoblasts – cell-based, Clone20 osteoblasts, firefly luciferase, cherry-picked, dose response (AID 624132); type: functional;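 also: firefly luciferase luminescence from reporter carrying the Shn3 3'UTR in osteoblasts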
cells = type: functional, cell-based; details: HEK-CNG
[6] = loss of viability in HepG2 cells – cell-based, CellTiter-Glo, cherry-picked, cytotoxicity control for Shn3 inhibitor project, dose response (AID 624134); type: functional
[7] = non-specific 3'UTR reporter inhibition in Clone20-Shn3RL – cell-based, Renilla luciferase, cherry-picked, counter-screen for Shn3 inhibitor project, dose response (AID 624133); type: functional
INS1 = test: INS-1E survival protection against cytokine death – cell-based, luminescence, retest, dose response (AID 449756); type: functional; details: Rattus norvegicus;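 also: cell death triggered by IL-1 beta plus TNF-alpha plus IFN-gamma mixture; protective hits raise ATP signal compared with cytokine alone wells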
[8] = HEK-293T viability loss after treatment – luminescence, T-cell screen hits, cytotoxicity control for TCR NF-kB inhibitor project, dose response (AID 489026); type: functional, cell-based;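 also: cells exposed to compound about 14 hours before the viability readout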
[9] = decrease of insulin promoter-GFP reporter – imaging, high-content screening, mouse beta cells (AID 1628); type: functional; details: MIN6
[10] = MIN6 cell viability loss – mouse insulinoma, cytotoxicity control, dose response (AID 2122); type: functional;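 also: confirmatory high-throughput counterscreen run to flag cytotoxic compounds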
Galanin receptor type 3 = Galanin receptor type 3 (Homo sapiens, UniProt O60755); test: Fluorescence-based cell-based primary high throughput dose response assay to identify antagonists of the Galanin Receptor 3 (GalR3).; type: functional
Sequence of Galanin receptor type 3 (O60755 whole entry): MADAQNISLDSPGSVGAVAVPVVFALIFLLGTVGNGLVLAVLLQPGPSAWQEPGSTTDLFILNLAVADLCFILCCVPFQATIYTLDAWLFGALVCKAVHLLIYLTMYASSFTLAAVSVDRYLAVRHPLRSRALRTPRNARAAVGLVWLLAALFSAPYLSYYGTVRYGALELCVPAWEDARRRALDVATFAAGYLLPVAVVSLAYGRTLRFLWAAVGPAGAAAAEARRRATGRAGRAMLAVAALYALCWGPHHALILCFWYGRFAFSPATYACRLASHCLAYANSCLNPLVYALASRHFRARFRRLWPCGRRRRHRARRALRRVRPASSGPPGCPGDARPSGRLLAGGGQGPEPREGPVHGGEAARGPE

[11] = general mammalian cell viability loss – activator set, cherry-pick, cytotoxicity control for miR-122 modulator project, dose response (AID 720690); type: functional, cell-based;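 also: HEK293T human cells scored for general mammalian cytotoxicity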
[12] = general mammalian cell viability loss – inhibitor set, cherry-pick, set 2, cytotoxicity control for miR-122 modulator project, dose response (AID 720697); type: functional, cell-based
[13] = target: T3, DNA repair protein RAD52 homolog (Homo sapiens, UniProt P43351); type: functional, biochemical
T3 sequence (P43351 whole entry): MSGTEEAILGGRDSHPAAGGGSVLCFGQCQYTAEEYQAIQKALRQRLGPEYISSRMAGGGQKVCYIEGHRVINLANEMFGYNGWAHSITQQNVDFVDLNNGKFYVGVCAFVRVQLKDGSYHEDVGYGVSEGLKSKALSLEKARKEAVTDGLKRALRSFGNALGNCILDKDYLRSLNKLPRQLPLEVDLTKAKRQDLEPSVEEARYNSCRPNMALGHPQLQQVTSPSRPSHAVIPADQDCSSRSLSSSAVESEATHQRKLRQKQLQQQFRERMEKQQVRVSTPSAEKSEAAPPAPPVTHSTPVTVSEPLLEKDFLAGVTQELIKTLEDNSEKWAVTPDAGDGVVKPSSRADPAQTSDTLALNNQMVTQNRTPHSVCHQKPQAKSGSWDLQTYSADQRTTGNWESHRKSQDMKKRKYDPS

[14] = COV434 cell viability loss – plate reader, dry powder, SA7, cytotoxicity control for PAX8 inhibitor project, dose response (AID 743145); type: functional, cell-based
[15] = OVCAR-3 cell viability loss – plate reader, dry powder samples, PAX8 inhibitor project, dose response (AID 743044); type: functional, cell-based
[16] = OV-90 cell viability loss – plate reader, dry powder, SA8, PAX8 inhibitor project, dose response (AID 743149); type: functional, cell-based
[17] = PAX5 cellular inhibition readout – cell-based, plate reader, dry powder samples, selectivity assay for PAX8 inhibitor project, dose response (AID 743047); type: functional;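 also: HEK293 cells carrying a Pax5 driven CD19 promoter luciferase reporter; potency of inhibitors that lower reporter luminescence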
Paired box protein Pax-8 = Paired box protein Pax-8 (Homo sapiens, UniProt Q06710); test: PAX8 transcriptional activity inhibition in RMG-I – RMG-I cells, luciferase, cherry-pick, dose response (AID 687027); type: functional, cell-based;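 also: luciferase reporter driven by Pax8 target thyroperoxidase promoter measured by SteadyGlo luminescence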
Sequence of Paired box protein Pax-8 (Q06710 whole entry): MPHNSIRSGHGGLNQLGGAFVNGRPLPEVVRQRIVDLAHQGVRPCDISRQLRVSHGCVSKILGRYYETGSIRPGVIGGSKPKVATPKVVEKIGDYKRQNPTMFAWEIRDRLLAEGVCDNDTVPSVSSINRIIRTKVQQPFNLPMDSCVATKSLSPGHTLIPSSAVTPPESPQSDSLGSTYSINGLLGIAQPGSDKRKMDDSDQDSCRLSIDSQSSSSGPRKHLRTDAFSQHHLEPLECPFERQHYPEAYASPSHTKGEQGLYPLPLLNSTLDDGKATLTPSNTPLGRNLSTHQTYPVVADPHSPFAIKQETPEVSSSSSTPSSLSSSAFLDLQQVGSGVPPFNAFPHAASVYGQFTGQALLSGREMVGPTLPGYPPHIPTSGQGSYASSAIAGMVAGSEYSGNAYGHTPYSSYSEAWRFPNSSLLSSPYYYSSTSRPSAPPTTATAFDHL

[18] = PAX8-dependent cell viability loss – plate reader, dry powder, dose response (AID 743049); type: functional, cell-based

- IC50 [1]: > 80 µM (inactive)
Compound: CNc1ccc(N=Nc2cc[n+]([O-])cc2C)cc1C

- IC50 (Aminopeptidase N): 69.2 µM (active)
- IC50 [2]: > 20 µM (inactive)
- IC50 [3]: 18.4 µM (active)
- EC50 [4]: > 53 µM (inactive)
Compound: Cc1ccc(S(=O)(=O)NC2=NC(=O)/C(=C/c3ccccc3)S2)cc1

Compound: Cc1cc(C)nc(SCC(=O)Nc2ccnc3ccccc23)n1
- AC50 [5]: 0.462 µM (active)
- EC50 (cells): > 29.9 µM (inactive)
- AC50 [6]: > 70 µM (inactive)
- AC50 [7]: < 0.26 µM (active)
- AC50 (INS1): 4.76 µM (active)
- IC50 [8]: > 80 µM (inactive)
- IC50 [9]: 0.695 µM (active)
- IC50 [10]: 0.398 µM (active)
- IC50 (Galanin receptor type 3): 0.874 µM (active)

Compound: COc1ccc(-c2c(-c3ccccc3)c(C(=O)C(=O)NCCCN(C)C)n3ccc4cc(OC)c(OC)cc4c23)cc1OC
- AC50 [11]: 17.2 µM (active)
- AC50 [12]: 4.39 µM (active)
- AC50 [13]: 3.15 µM (active)

Compound: CC(C)c1cc(C(=O)OCC(=O)N2CCN(C(=O)c3ccco3)CC2)c(O)c(C(C)C)c1
- AC50 [14]: 13.7 µM (active)
- AC50 [15]: 49.9 µM (active)
- AC50 [16]: 81.3 µM (active)
- AC50 [17]: 45.8 µM (active)
- AC50 (Paired box protein Pax-8): 1.58 µM (active)
- AC50 [18]: 10.8 µM (active)
